Like-named read-outs stand apart in the source and are kept apart here.
Tests used:
[1] = target: T1, CYP17 (human testicular microsome) (Homo sapiens, UniProt P05093); test: CYP17 enzymatic assay (IC50) (Biological Example 4); type: biochemical; conditions: human testicular microsome, DHEA by ELISA; read-out: Biological Example No. 4: CYP17 enzymatic assay IC50
T1 construct: using microsomal fraction from human testis (Celsis Cat #S00110) as the enzyme source; tissue Celsis S00110; host or cells: human testis microsomal fraction
T1 sequence (P05093 1-508): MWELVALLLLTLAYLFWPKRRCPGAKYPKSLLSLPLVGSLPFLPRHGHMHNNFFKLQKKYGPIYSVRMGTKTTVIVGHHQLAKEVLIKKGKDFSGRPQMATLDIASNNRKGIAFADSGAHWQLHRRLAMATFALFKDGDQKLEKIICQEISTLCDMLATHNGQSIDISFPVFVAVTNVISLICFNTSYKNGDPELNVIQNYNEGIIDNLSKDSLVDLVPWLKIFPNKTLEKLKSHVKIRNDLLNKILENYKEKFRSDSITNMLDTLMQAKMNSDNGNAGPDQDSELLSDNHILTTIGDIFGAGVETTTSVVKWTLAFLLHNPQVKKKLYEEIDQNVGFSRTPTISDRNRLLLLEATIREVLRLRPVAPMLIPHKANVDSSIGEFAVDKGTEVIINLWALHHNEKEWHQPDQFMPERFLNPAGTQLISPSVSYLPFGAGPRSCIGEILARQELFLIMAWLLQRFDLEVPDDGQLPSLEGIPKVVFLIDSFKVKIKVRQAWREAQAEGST
Protocol: The assays were performed in 96-well plates. Typical assays were carried out in total 100 μL volume that included test compounds at designated concentrations, 1× reaction buffer, 0.5 mM NADPH, 1 μM 17α-hydroxypregnenolone, and 2.5 μL of diluted human testicular microsome (Celsis. Cat #S00110). Reaction without test compound served as positive control. Reactions were allowed to incubate at 37° C. for 90 minutes with gentle shaking. The reaction was stopped by directly applying the enzymatic reaction mixture to ELISA plate for evaluation of DHEA concentration according to manufacturer's protocol (IBL America). A standard curve (OD450 vs. DHEA concentration) was generated using purified DHEA.

[2] = target: T1, CYP17 (human testicular microsome); test: CYP17 enzymatic assay (% inhibition at 10 nM), version 1 (Biological Example 5); type: biochemical; conditions: 10 nM compound, DHEA by ELISA, read-out: Biological Example No. 5: CYP17 percent inhibition at 10 nM (version 1)
[3] = test system: rat Cyp11B enzyme (rat adrenal mitochondria); test: CYP11B enzymatic assay (% inhibition at 100 nM) (Biological Example 9); type: biochemical; conditions: for Biological Example No. 9: CYP11B percent inhibition at 100 nM: 100 nM compound, cortisol by ELISA
Summary of the method: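 Sprague Dawley rat adrenal mitochondria were incubated with compound at 100 nM, 0.5 mM NADPH and 0.1 μM 11-deoxycortisol (pH 7.4 Tris buffer) for 60 min at 37 °C. Cortisol was measured by ELISA and corrected by subtracting the no-NADPH background. % inhibition is relative to the no-compound reaction.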

[4] = target: T2, Cyp21 enzyme (Human HEK 293-Cyp21 stable transfected cells) (Homo sapiens, UniProt P08686); test: CYP21-HEK293 enzymatic assay (% inhibition at 100 nM) (Biological Example 10); type: cell-based; conditions: HEK 293-Cyp21 cells
T2 construct: expressed in transfected cells
T2 sequence (P08686 1-495): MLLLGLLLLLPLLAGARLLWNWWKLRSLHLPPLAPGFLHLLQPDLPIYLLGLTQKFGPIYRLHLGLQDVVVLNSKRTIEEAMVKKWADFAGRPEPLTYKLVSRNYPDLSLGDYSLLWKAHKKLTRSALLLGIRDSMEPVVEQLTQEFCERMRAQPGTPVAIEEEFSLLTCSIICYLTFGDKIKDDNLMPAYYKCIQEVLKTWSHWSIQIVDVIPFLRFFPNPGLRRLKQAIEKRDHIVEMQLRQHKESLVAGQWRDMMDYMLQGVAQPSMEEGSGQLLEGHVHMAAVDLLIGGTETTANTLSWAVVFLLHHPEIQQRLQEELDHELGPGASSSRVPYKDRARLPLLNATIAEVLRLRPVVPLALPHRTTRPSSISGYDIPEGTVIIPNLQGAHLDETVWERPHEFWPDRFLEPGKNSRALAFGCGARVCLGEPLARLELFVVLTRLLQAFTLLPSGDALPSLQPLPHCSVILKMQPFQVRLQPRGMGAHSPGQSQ
Summary of the method: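 Percent inhibition at 100 nM: DOC in conditioned medium was read by ELISA at 450 nm and quantified from a standard curve. Stably transfected human Cyp21 HEK293 cells were pretreated 5 h with compound or 1% methanol mock, then given 10 μM final progesterone for 20 h at 37 °C.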

[5] = Rat liver microsome stability assay (Biological Example 8a); conditions: liver microsomes, pH 7.4
Protocol: Each test compound (1.5 μM, 30 μL) was incubated with rat (BD Gentest, Cat No. 452501) or human (BD Gentest, Cat No. 452161) liver microsomes (0.75 mg/mL, 0.1 M potassium phosphate buffer, 1.0 mM EDTA, pH 7.4) in 96 well plates. The reaction was started with addition of excess NADPH (5 mg/mL, 15 μL in 0.1 M potassium phosphate buffer, 1.0 mM EDTA, pH 7.4), the total volume is 45 μL (compound final concentration was 1 μM). The incubations were terminated at time zero and at 5, 15, 30, and 60 minutes by addition of 135 μL/excess ACN containing internal standard (1S). After quenching, the reaction mixtures was centrifuged (Eppendorf Centrifuge 5810R) at 3220×g for 10 min (4° C.). 50 μL of the supernatant was transferred from each well into a 96-well sample plate containing 50 μL of ultra-pure water (Millipore) for LC-MS/MS analysis. The half-life T1/2=0.693/K (K is the rate constant from a plot of log [concentration] vs. incubation time) was calculated.

[6] = Human liver microsome stability assay (Biological Example 8b); conditions: liver microsomes, pH 7.4
Protocol: (§1) The reaction was started with addition of excess NADPH (5 mg/mL, 15 μL in 0.1 M potassium phosphate buffer, 1.0 mM EDTA, pH 7.4), the total volume is 45 μL (compound final concentration was 1 μM). […] 50 μL of the supernatant was transferred from each well into a 96-well sample plate containing 50 μL of ultra-pure water (Millipore) for LC-MS/MS analysis.

in vitro = conditions: human, microsomes, pH 7.4
Protocol: as §1

[7] = target: T1, CYP17 (human testicular microsome); test: CYP17 enzymatic assay (% inhibition at 1 nM) (Biological Example 12); type: biochemical
Protocol: The assays were performed in 96-well plates. Typical assays were carried out in total 100 μL volume that included test compounds at 1 nM concentration, 1× reaction buffer, 0.5 mM NADPH, 1 μM 17α-hydroxypregnenolone, and 2.5 μL of human testicular microsome (Celsis. Cat #S00110). Reaction without test compound served as a positive control. Reactions were allowed to incubate at 37° C. for 90 min with gentle shaking. The reaction was stopped by directly applying the enzymatic reaction mixture to ELISA plate for evaluation of DHEA concentration according to manufacturer's protocol (IBL America). A standard curve (OD450 vs. DHEA concentration) was generated using purified DHEA. […] Percent inhibition (inhibition %) of the compound was calculated using normalized DHEA concentration based on following formula: 100−([DHEA] of compound/[DHEA] of positive control*100).

[8] = 100 nM compound, read-out: Biological Example No. 10: CYP21-HEK293 percent inhibition at 100 nM
[9] = compound at 1 nM, read-out: CYP17 enzymatic assay % inhibition at 1 nM (Biological Example No. 12)

C[C@]12CC[C@H]3[C@@H](CC[C@H]4CC(=O)NCC[C@@]43C)C1=CC=C2c1cccnc1 [Compound 165, (5aS,5bS,7aS,10bR,12aS)-5a,7a-dimethyl-8-(pyridin-3-yl)-3,4,5,5a,5b,6,7,7a,10b,11,12,12a-dodecahydrocyclopenta[5,6]naphtho[1,2-d]azepin-2(1H)-one]
IC50 [1]: < 11 nM | inhibition at 0.01 µM [2]: > 80% | Biological Example No. 9: CYP11B percent inhibition at 100 nM [3]: na (“na” means the compound was not active under the conditions tested) | inhibition at 0.1 µM [4, 8]: < 30% | half-life at 1 μM [5]: 1 to 10 min | half-life at 1 μM [6]: 1 to 50 min

COc1cncc(C2=CC=C3[C@@H]4CCC5=CC(=O)CC[C@]5(C)[C@H]4CC[C@]23C)c1 [Compound 83, (10R,13S)-17-(5-methoxypyridin-3-yl)-10,13-dimethyl-6,7,8,9,10,11,12,13-octahydro-1H-cyclopenta[a]phenanthren-3(2H)-one]
inhibition at 0.01 µM [2]: 50 to 80% | inhibition at 0.1 µM [4, 8]: ≥ 30% | half-life at 1 μM (in vitro): 1 to 50 min

C[C@]12CC[C@H]3[C@@H](CCC4=CC(=O)CC[C@@]43C)C1=CC=C2n1ccnc1 [Compound 75, (10R,13S)-17-(1H-imidazol-1-yl)-10,13-dimethyl-6,7,8,9,10,11,12,13-octahydro-1H-cyclopenta[a]phenanthren-3(2H)-one]
IC50 [1]: < 11 nM | inhibition at 0.01 µM [2]: > 80% | Biological Example No. 9: CYP11B percent inhibition at 100 nM [3]: U (U means the compound had a percent inhibition of greater than or equal to 32%) | inhibition at 0.1 µM [4, 8]: < 30% | half-life at 1 μM [5]: 10 to 60 min | half-life at 1 μM [6]: > 50 min

CN1CC[C@@]2(C)C(=CC1=O)CC[C@@H]1[C@@H]2CC[C@]2(C)C(n3ccnc3)=CC[C@@H]12 [Compound 146]
IC50 [1]: < 11 nM | inhibition at 0.01 µM [2]: > 80% | Biological Example No. 9: CYP11B percent inhibition at 100 nM [3]: U (U means the compound had a percent inhibition of greater than or equal to 32%) | inhibition at 0.1 µM [4, 8]: < 30% | half-life at 1 μM [5]: 10 to 60 min | half-life at 1 μM [6]: 1 to 50 min

CC(=O)N[C@@H]1CC[C@@]2(C)C(CC[C@H]3C4=CC=C(c5cccnc5)[C@@]4(C)CC[C@@H]32)C1 (stereo partly drawn) [Compound 244, N-((3R,10S,13S)-10,13-dimethyl-17-(pyridin-3-yl)-2,3,4,5,6,7,8,9,10,11,12,13-dodecahydro-1H-cyclopenta[a]phenanthren-3-yl)acetamide]
inhibition at 0.001 µM [7, 9]: > 50% | half-life at 1 μM (in vitro): 1 to 50 min

C[C@@]1(O)CC[C@@]2(C)C(=CCC3C2CC[C@]2(C)C(c4cncc(F)c4)=CCC32)C1 (stereo partly drawn) [Compound 269, (3R,10R,13S)-17-(5-fluoropyridin-3-yl)-3,10,13-trimethyl-2,3,4,7,8,9,10,11,12,13,14,15-dodecahydro-1H-cyclopenta[a]phenanthren-3-ol]
inhibition at 0.001 µM ([7]; test compound at 1 nM, read-out: CYP17 enzymatic assay percent inhibition at 1 nM (Biological Example No. 12)): > 50% | half-life at 1 μM (in vitro): > 50 min

C[C@]12CCNC(=O)C=C1CC[C@@H]1[C@@H]2CC[C@]2(C)C(c3cnccn3)=CC[C@@H]12 [Compound 61, (5aR,7aS)-5a,7a-dimethyl-8-(pyrazin-2-yl)-4,5,5a,5b,6,7,7a,10,10a,10b,11,12-dodecahydrocyclopenta[5,6]naphtho[2,1-c]azepin-3(2H)-one]
inhibition at 0.01 µM [2]: > 80% | inhibition at 0.1 µM [4, 8]: ≥ 30% | half-life at 1 μM [5]: 1 to 10 min

Cc1cncc(C2=CC[C@H]3[C@@H]4CCC5=CC(=O)NCC[C@]5(C)[C@H]4CC[C@]23C)c1 [Compound 51]
IC50 [1]: < 11 nM | inhibition at 0.01 µM [2]: 50 to 80% | inhibition at 0.1 µM [4, 8]: ≥ 30% | half-life at 1 μM [5]: 10 to 60 min

C[C@]12CCNC(=O)C=C1CC[C@@H]1[C@@H]2CC[C@]2(C)C(n3ccnn3)=CC[C@@H]12 [Compound 59]
inhibition at 0.01 µM [2]: > 80% | Biological Example No. 9: CYP11B percent inhibition at 100 nM [3]: na (“na” means the compound was not active under the conditions tested) | inhibition at 0.1 µM [4, 8]: < 30% | half-life at 1 μM [5]: 1 to 10 min | half-life at 1 μM [6]: > 50 min

COc1cncc(C2=CCC3C4CCC5C[C@H](NC(C)=O)CC[C@]5(C)C4CC[C@]23C)c1 (stereo partly drawn) [Compound 222, N-((3R,10S,13S)-17-(5-methoxypyridin-3-yl)-10,13-dimethyl-2,3,4,5,6,7,8,9,10,11,12,13,14,15-tetradecahydro-1H-cyclopenta[a]phenanthren-3-yl)acetamide]
inhibition at 0.001 µM [7, 9]: > 50% | half-life at 1 μM (in vitro): 1 to 50 min

C[C@]12CCNC(=O)C=C1CC[C@@H]1[C@@H]2CC[C@]2(C)C(c3cncnc3)=CC[C@@H]12 [Compound 60, (5aR,7aS)-5a,7a-dimethyl-8-(pyrimidin-5-yl)-4,5,5a,5b,6,7,7a,10,10a,10b,11,12-dodecahydrocyclopenta[5,6]naphtho[2,1-c]azepin-3(2H)-one]
inhibition at 0.01 µM [2]: 50 to 80% | inhibition at 0.1 µM [4, 8]: ≥ 30% | half-life at 1 μM [5]: 1 to 10 min

COC(=O)N[C@@H]1CC[C@@]2(C)C(CCC3C2CC[C@]2(C)C(c4cccnc4)=CCC32)C1 (stereo partly drawn) [Compound 219, methyl ((3R,10S,13S)-10,13-dimethyl-17-(pyridin-3-yl)-2,3,4,5,6,7,8,9,10,11,12,13,14,15-tetradecahydro-1H-cyclopenta[a]phenanthren-3-yl)carbamate]
inhibition at 0.001 µM [7, 9]: > 50% | half-life at 1 μM (in vitro): 1 to 50 min

CCNC(=O)NC1CC[C@@]2(C)C(=CCC3C2CC[C@]2(C)C(n4ccnc4)=CCC32)C1 (stereo partly drawn) [Compound 242, 1-((10R,13S)-17-(1H-imidazol-1-yl)-10,13-dimethyl-2,3,4,7,8,9,10,11,12,13,14,15-dodecahydro-1H-cyclopenta[a]phenanthren-3-yl)-3-ethylurea]
CYP11B enzymatic assay % inhibition at 100 nM (Biological Example No. 9) ([3]; compound at 100 nM): U (U means the compound had a percent inhibition of greater than or equal to 32%) | inhibition at 0.1 µM ([4]; compound at 100 nM, read-out: CYP21-HEK293 enzymatic assay % inhibition at 100 nM (Biological Example No. 10)): < 30% | inhibition at 0.001 µM [7, 9]: > 50% | half-life at 1 μM (in vitro): 1 to 50 min

CCNC(=O)N[C@@H]1CC[C@@]2(C)C(=CC[C@@H]3[C@@H]2CC[C@]2(C)C(c4cccnc4)=CC[C@@H]32)C1 [Compound 232, 1-((3R,10R,13S)-10,13-dimethyl-17-(pyridin-3-yl)-2,3,4,7,8,9,10,11,12,13,14,15-dodecahydro-1H-cyclopenta[a]phenanthren-3-yl)-3-ethylurea]
inhibition at 0.001 µM [7, 9]: > 50% | half-life at 1 μM (in vitro): 1 to 50 min

CC(=O)N[C@@H]1CC[C@@]2(C)C(=CC[C@@H]3[C@@H]2CC[C@]2(C)C(c4cncc(C(F)(F)F)c4)=CC[C@@H]32)C1 [Compound 231, N-((3R,10R,13S)-10,13-dimethyl-17-(5-(trifluoromethyl)pyridin-3-yl)-2,3,4,7,8,9,10,11,12,13,14,15-dodecahydro-1H-cyclopenta[a]phenanthren-3-yl)acetamide]
inhibition at 0.001 µM [7, 9]: 10 to 50% | half-life at 1 μM (in vitro): 1 to 50 min
